How the values were obtained:
[1] = molecular target: T1, HCV NS3 protease domain (Hepatitis C virus genotype 1b, UniProt Q9WMX2); assay: biochemical; details: Enzyme Assay 1 (HCV NS3 Protease Domain Peptide Cleavage Assay) activity, apparent Ki class
T1 construct: The first 181 amino acids of NS3 (residues 1027-1207 of the viral polyprotein); hexa-histidine (C); made in house; host or cells: E. coli BL21/DE3 pLysS

[2] = molecular target: T2, full-length hepatitis C viral protein NS3•4A (Hepatitis C virus genotype 1a, UniProt P27958); assay: biochemical; design: species or system HCV sub-type strain 1a
T2 construct: hexa-histidine (N); made in house; host or cells: Sf9 insect cells (baculovirus, pVL1392)

[3] = Enzyme Assay 2 (HCV NS3 Peptide Cleavage Assay) activity, apparent Ki class
[4] = Enzyme Assay 2, HCV NS3 Peptide Cleavage Assay, apparent Ki

SMILES	Ki [1] [µM]	Ki [2, 3] [µM]	Ki [2, 4] [µM]
CCCNC(=O)C(=O)[C@H](CCC)NC(=O)[C@@H]1C[C@]2(CC(c3cccc(Cl)c3)=NO2)CN1C(=O)[C@@H](NC(=O)CC1CCCCC1)C(C)(C)C [Compound 508]	0.1 to 0.5	0.1 to 0.5	–
CCC[C@H](NC(=O)[C@@H]1C[C@]2(CC(c3cccc(Cl)c3)=NO2)CN1C(=O)[C@@H](NC(=O)[C@@H]1CCC(=O)N1Cc1cccc(Cl)c1)C(C)(C)C)C(=O)C(=O)NC1CC1 [Compound 377]	0.1 to 0.5	< 0.1	–
CCC[C@H](NC(=O)[C@@H]1C[C@]2(CC(c3cccc(Cl)c3)=NO2)CN1C(=O)[C@@H](NC(=O)CC1CCCCC1)C(C)(C)C)C(=O)C(=O)NCC1COc2ccccc2O1 (some centres unmarked) [Compound 141]	> 0.5	0.1 to 0.5	–
CCC[C@H](NC(=O)[C@@H]1C[C@]2(CC(c3cccc(Cl)c3)=NO2)CN1C(=O)c1[nH]c2ccccc2c1CC(=O)N(CC)CC)C(=O)C(=O)NC1CC1 [Compound 420]	> 0.5	> 0.5	–
CCC[C@H](NC(=O)[C@@H]1CC2(CC(c3cccc(Cl)c3)=NO2)CN1C(=O)[C@H](Cc1ccc(O)cc1)NC(C)=O)C(=O)C(=O)NC1CC1 (some centres unmarked) [Compound 412]	0.1 to 0.5	0.1 to 0.5	–
CCC[C@H](NC(=O)[C@@H]1C[C@]2(CC(c3cc(Cl)c4c(c3)CCO4)=NO2)CN1C(=O)[C@@H](NC(=O)CC1CCCCC1)C(C)(C)C)C(=O)C(=O)NC1CC1 [Compound 499]	< 0.1	< 0.1	–
CCC[C@H](NC(=O)[C@@H]1C[C@]2(CC(c3cccc(Cl)c3)=NO2)CN1C(=O)[C@@H](NC(=O)CC1CCCCC1)C(C)(C)C)C(=O)C(=O)NCc1cc(OC)cc(OC)c1 [Compound 127]	0.1 to 0.5	0.1 to 0.5	–
CCC[C@H](NC(=O)[C@@H]1C[C@]2(CC(c3cccc(Cl)c3)=NO2)CN1C(=O)[C@@H](NC(=O)CC1CCCCC1)C(C)(C)C)C(=O)C(=O)NCCc1ccc2c(c1)OCO2 [Compound 221]	0.1 to 0.5	0.1 to 0.5	–
CCC[C@H](NC(=O)[C@@H]1C[C@]2(CC(c3cccc(Cl)c3)=NO2)CN1C(=O)[C@@H](NC(=O)CC1CCCCC1)C(C)(C)C)C(=O)C(=O)NC(CC)CC [Compound 300]	0.1 to 0.5	0.1 to 0.5	–
CCC[C@H](NC(=O)[C@@H]1C[C@]2(CC(c3cccc(Cl)c3)=NO2)CN1C(=O)[C@@H](NC(=O)[C@@H]1CCC(=O)N1C(C)C)C(C)(C)C)C(=O)C(=O)NC1CC1 [Compound 241]	> 0.5	0.1 to 0.5	–
CCC[C@H](NC(=O)[C@@H]1C[C@]2(CC(c3ccc4c(c3)CCC(C)(C)O4)=NO2)CN1C(=O)[C@@H](NC(=O)CC1CCCCC1)C(C)(C)C)C(=O)C(=O)NC1CC1 [Compound 204]	0.1 to 0.5	0.1 to 0.5	–
CCC[C@H](NC(=O)[C@@H]1C[C@]2(CC(c3cccc(Cl)c3)=NO2)CN1C(=O)[C@@H](NC(=O)C1CCC(=O)N1)C(C)C)C(=O)C(=O)NC1CC1 (some centres unmarked) [Compound 218]	> 0.5	> 0.5	–
CCC[C@H](NC(=O)[C@@H]1C[C@]2(CC(c3cccc(Cl)c3)=NO2)CN1C(=O)[C@H](Cc1ccccc1C(F)(F)F)NC(=O)CC1CCCCC1)C(=O)C(=O)NC1CC1 [Compound 289]	> 0.5	0.1 to 0.5	–
CCC[C@H](NC(=O)[C@@H]1C[C@]2(CC(c3cccc(Cl)c3)=NO2)CN1C(=O)[C@@H](NC(=O)CC1CCCCC1)[C@@H](C)c1ccccc1)C(=O)C(=O)NC1CC1 [Compound 125]	0.1 to 0.5	0.1 to 0.5	–
CCC[C@H](NC(=O)[C@@H]1C[C@]2(CC(c3cccc(Cl)c3)=NO2)CN1C(=O)[C@@H](NS(=O)(=O)c1ccc(OC)cc1)C(C)CC)C(=O)C(=O)NC1CC1 (some centres unmarked) [Compound 534]	> 0.5	> 0.5	–
CCC[C@H](NC(=O)[C@@H]1C[C@]2(CC(c3cccc(Cl)c3)=NO2)CN1C(=O)[C@H](Cc1ccccc1F)NC(=O)CC1CCCCC1)C(=O)C(=O)NC1CC1 [Compound 338]	> 0.5	0.1 to 0.5	–
CCC[C@H](NC(=O)[C@@H]1C[C@]2(CC(c3cccc(Cl)c3)=NO2)CN1C(=O)[C@@H](NC(=O)CC1CCCCC1)C(C)(C)C)C(=O)C(=O)NC [Compound 493]	0.1 to 0.5	< 0.1	–
CCC[C@H](NC(=O)[C@@H]1C[C@]2(CC(c3cccc(Cl)c3)=NO2)CN1C(=O)[C@H](Cc1ccc(OC(C)C)cc1)NC(C)=O)C(=O)C(=O)NC1CC1 [Compound 332]	> 0.5	0.1 to 0.5	–
CCC[C@H](NC(=O)[C@@H]1C[C@]2(CC(c3cccc(Cl)c3)=NO2)CN1C(=O)c1cc2cc(Br)ccc2[nH]1)C(=O)C(=O)NC1CC1 [Compound 46]	> 0.5	> 0.5	–
CCC[C@H](NC(=O)[C@@H]1C[C@]2(CC(c3cc(Cl)cc4c3OC(C)(C)C4)=NO2)CN1C(=O)[C@@H](NC(=O)CC1CCCCC1)C(C)(C)C)C(=O)C(=O)NC1CC1 [Compound 170]	–	< 0.1	–
CCC[C@H](NC(=O)[C@@H]1C[C@]2(CC(c3cc(C)c(OCC)c(Cl)c3)=NO2)CN1C(=O)[C@@H](NC(=O)OC1CCCC1)C(C)(C)C)C(=O)C(=O)NC [Compound 785]	–	< 0.1	–
CCOc1c(C)cc(C2=NO[C@]3(C2)C[C@@H](C(=O)N[C@@H](CC2CC2)C(=O)C(N)=O)N(C(=O)[C@@H](NC(=O)OC(C)(C)C)C(C)(C)C)C3)cc1C [Compound 974]	–	–	< 0.1

SMILES	Ki [1] [µM]	Ki [2, 3] [µM]	Ki [2, 4] [µM]
CCC[C@H](NC(=O)[C@@H]1C[C@]2(CC(c3cccc(Cl)c3)=NO2)CN1C(=O)[C@@H](NC(=O)CC1CCCCC1)C(C)(C)C)C(=O)C(=O)N1CC(OC[C@H]2CCCO2)C1 [Compound 238]	–	> 0.5	–
CCC[C@H](NC(=O)[C@@H]1C[C@]2(CC(c3cccc(Cl)c3)=NO2)CN1C(=O)[C@@H](NC(=O)[C@H]1C[C@@H]1C1CCCCC1)C(C)(C)C)C(=O)C(=O)NC1CC1 [Compound 920]	–	–	0.1 to 0.5
CCC[C@H](NC(=O)[C@@H]1C[C@]2(CC(c3cc(Cl)c(OC)cc3C)=NO2)CN1C(=O)[C@@H](NC(=O)OC1CCCC1)C(C)(C)C)C(=O)C(=O)NC [Compound 650]	–	0.1 to 0.5	–
CCC[C@H](NC(=O)[C@@H]1C[C@]2(CC(c3cc(C)c(OCC)c(C)c3)=NO2)CN1C(=O)[C@@H](NC(=O)[C@@H]1C[C@H]1c1ccccc1)C(C)(C)C)C(=O)C(=O)NC [Compound 828]	–	–	< 0.1
CNC(=O)C(=O)[C@H](CC1CC1)NC(=O)[C@@H]1C[C@]2(CC(c3cccc4cccnc34)=NO2)CN1C(=O)[C@@H](NC(=O)CC1CCCCC1)C(C)(C)C [Compound 671]	–	0.1 to 0.5	–
CCC[C@H](NC(=O)[C@@H]1C[C@]2(CC(c3cc(C)c(OC)c(C)c3)=NO2)CN1C(=O)[C@@H](NC(=O)OC1CCCC1)C(C)(C)C)C(=O)C(N)=O [Compound 760]	–	< 0.1	–
CNC(=O)C(=O)[C@H](CC1CC1)NC(=O)[C@@H]1C[C@]2(CC(c3cccc(Cl)c3)=NO2)CN1C(=O)[C@@H](NC(=O)C1CC1c1ccn(C)n1)C(C)(C)C (some centres unmarked) [Compound 955]	–	–	< 0.1
CNC(=O)C(=O)[C@H](CC1CC1)NC(=O)[C@@H]1C[C@]2(CC(c3cc(Cl)c(OC)cc3OC)=NO2)CN1C(=O)[C@@H](NC(=O)CC1CCCCC1)C(C)(C)C [Compound 657]	–	< 0.1	–
CCC[C@H](NC(=O)[C@@H]1C[C@]2(CC(c3cc(Cl)c(OC)cc3OC)=NO2)CN1C(=O)[C@@H](NC(=O)CC1CCCCCC1)C(C)(C)C)C(=O)C(=O)NC1CC1 [Compound 129]	–	< 0.1	–
CCC[C@H](NC(=O)[C@@H]1C[C@]2(CC(c3cc(C)c(OCC)c(C)c3)=NO2)CN1C(=O)[C@@H](NC(=O)[C@@H]1C[C@H]1C1CCCCC1)C(C)(C)C)C(=O)C(=O)NC1CC1 [Compound 984]	–	–	< 0.1
CCC[C@H](NC(=O)[C@@H]1C[C@]2(CC(c3cccc(Cl)c3)=NO2)CN1C(=O)[C@@H](NC(=O)[C@@H]1C[C@H]1C(C)C)C(C)(C)C)C(=O)C(=O)NC1CC1 [Compound 897]	–	–	< 0.1
CNC(=O)C(=O)[C@H](CC1CC1)NC(=O)[C@@H]1C[C@]2(CC(c3cccc(Cl)c3)=NO2)CN1C(=O)[C@@H](NC(=O)CC1CC2CCC1C2)C(C)(C)C (some centres unmarked) [Compound 716]	–	< 0.1	–
CCC[C@H](NC(=O)[C@@H]1C[C@]2(CC(c3cc(Cl)c(OC)cc3C)=NO2)CN1C(=O)[C@@H](NC(=O)OC1CCCC1)C(C)(C)C)C(=O)C(=O)NC1CC1 [Compound 666]	–	< 0.1	–
CNC(=O)C(=O)[C@H](CC1CC1)NC(=O)[C@@H]1C[C@]2(CC(c3cccc(Cl)c3)=NO2)CN1C(=O)[C@@H](NC(=O)[C@@H]1C[C@H]1c1ccccn1)C(C)(C)C [Compound 869]	–	–	< 0.1
CNC(=O)C(=O)[C@H](CC1CC1)NC(=O)[C@@H]1C[C@]2(CC(c3cccc(Cl)c3)=NO2)CN1C(=O)[C@@H](NC(=O)C1C[C@@H]1c1ccccc1)C(C)(C)C (some centres unmarked) [Compound 695]	–	< 0.1	–
CNC(=O)C(=O)[C@H](CC1CC1)NC(=O)C1C[C@]2(CC(c3cccc(Cl)c3)=NO2)CN1C(=O)[C@@H](NC(=O)C1CCC1)C(C)(C)C (some centres unmarked) [Compound 749]	–	< 0.1	–
CNC(=O)C(=O)[C@H](CC1CC1)NC(=O)[C@@H]1C[C@]2(CC(c3cccc(Cl)c3)=NO2)CN1C(=O)[C@@H](NC(=O)C1(c2ccccc2)CC1)C(C)(C)C [Compound 966]	–	–	> 0.5
CCOc1c(C)cc(C2=NO[C@]3(C2)C[C@@H](C(=O)N[C@@H](CC2CC2)C(=O)C(=O)NC)N(C(=O)[C@@H](NC(=O)OC2CCCC2)C(C)(C)C)C3)cc1Cl [Compound 817]	–	–	< 0.1
CNC(=O)C(=O)[C@H](CC1CC1)NC(=O)[C@@H]1C[C@]2(CC(c3cccc(Cl)c3)=NO2)CN1C(=O)[C@@H](NC(=O)[C@@H]1C[C@@H]1c1ccccn1)C(C)(C)C [Compound 886]	–	–	< 0.1
CNC(=O)C(=O)[C@H](CC1CC1)NC(=O)[C@@H]1C[C@]2(CC(c3cccc4cccnc34)=NO2)CN1C(=O)[C@@H](NC(=O)[C@H]1C[C@@H]1c1ccccc1)C(C)(C)C [Compound 807]	–	–	0.1 to 0.5
CCNC(=O)C(=O)[C@H](CC1CC1)NC(=O)[C@@H]1C[C@]2(CC(c3cc(C)c(OC)c(C)c3)=NO2)CN1C(=O)[C@@H](NC(=O)[C@@H]1CC1c1ccccc1)C(C)(C)C (some centres unmarked) [Compound 845]	–	–	< 0.1

— patent US7964624B1, “Inhibitors of serine proteases” (priority 2005, dated 2011)
